Results as given in PMC10408569, “Recruitment of hexahydroquinoline as anticancer scaffold targeting inhibition of wild and mutants EGFR (EGFR^WT, EGFR^T790M, and EGFR^L858R)” (Journal of Enzyme Inhibition and Medicinal Chemistry, 2023).

What was measured:
Assay in all cases: NCI-60 anticancer screening (SRB)
Type in all cases: cell-based
MDA-MB-231 = settings: Homo sapiens; MDA-MB-231, breast cancer; one dose 10 μM; read-out: Growth Inhibition Percentage (GI %)
T-47D = settings: Homo sapiens, T47D, breast cancer, one dose 10 μM, read-out: Growth Inhibition Percentage (GI %)
SNB-75 = settings: Homo sapiens; SNB-75, CNS cancer; one dose 10 μM; read-out: Growth Inhibition Percentage (GI %)
A549/ATCC = settings: Homo sapiens; A549/ATCC, NSC lung cancer; one dose 10 μM; read-out: Growth Inhibition Percentage (GI %)
SN 12C = settings: Homo sapiens, SN12C; SN 12C, renal cancer; one dose 10 μM; read-out: Growth Inhibition Percentage (GI %)
SF-295 = settings: Homo sapiens; SF-295, CNS cancer; one dose 10 μM; read-out: Growth Inhibition Percentage (GI %)
HCT-15 = settings: Homo sapiens; HCT-15, colon cancer; one dose 10 μM; read-out: Growth Inhibition Percentage (GI %)
HOP-62 = settings: Homo sapiens; HOP-62, NSC lung cancer; one dose 10 μM; read-out: Growth Inhibition Percentage (GI %)
SF-539 = settings: Homo sapiens; SF-539, CNS cancer; one dose 10 μM; read-out: Growth Inhibition Percentage (GI %)
786-0 = settings: Homo sapiens; 786-0, renal cancer; one dose 10 μM; read-out: Growth Inhibition Percentage (GI %)
EKVX = settings: Homo sapiens, NSC lung cancer, one dose 10 μM, read-out: Growth Inhibition Percentage (GI %)
RPMI-8226 = settings: Homo sapiens; RPMI-8226, leukemia; one dose 10 μM; read-out: Growth Inhibition Percentage (GI %)
SK-MEL-28 = settings: Homo sapiens; SK-MEL-28, melanoma; one dose 10 μM; read-out: Growth Inhibition Percentage (GI %)
KM 12 = settings: Homo sapiens, KM12; KM 12, colon cancer; one dose 10 μM; read-out: Growth Inhibition Percentage (GI %)
SF-268 = settings: Homo sapiens; SF-268, CNS cancer; one dose 10 μM; read-out: Growth Inhibition Percentage (GI %)
NCI-H322M = settings: Homo sapiens, NSC lung cancer, one dose 10 μM, read-out: Growth Inhibition Percentage (GI %)
HT29 = settings: Homo sapiens, HT-29; HT29, colon cancer; one dose 10 μM; read-out: Growth Inhibition Percentage (GI %)
CAKI-1 = settings: Homo sapiens; CAKI-1, renal cancer; one dose 10 μM; read-out: Growth Inhibition Percentage (GI %)
NCI-H460 = settings: Homo sapiens; NCI-H460, NSC lung cancer; one dose 10 μM; read-out: Growth Inhibition Percentage (GI %)
SNB-19 = settings: Homo sapiens; SNB-19, CNS cancer; one dose 10 μM; read-out: Growth Inhibition Percentage (GI %)
TK-10 = settings: Homo sapiens; TK-10, renal cancer; one dose 10 μM; read-out: Growth Inhibition Percentage (GI %)
DU-145 = settings: Homo sapiens; DU-145, prostate cancer; one dose 10 μM; read-out: Growth Inhibition Percentage (GI %)
NCI/ADR-RES = settings: Homo sapiens, ovarian cancer, one dose 10 μM, read-out: Growth Inhibition Percentage (GI %)
SK-MEL-5 = settings: Homo sapiens; SK-MEL-5, melanoma; one dose 10 μM; read-out: Growth Inhibition Percentage (GI %)
MDA-MB-435 = settings: Homo sapiens; MDA-MB-435, melanoma; one dose 10 μM; read-out: Growth Inhibition Percentage (GI %)
NCI-H522 = settings: Homo sapiens; NCI-H522, NSC lung cancer; one dose 10 μM; read-out: Growth Inhibition Percentage (GI %)
HL-60(TB) = settings: Homo sapiens, leukemia, one dose 10 μM, read-out: Growth Inhibition Percentage (GI %)
RXF 393 = settings: Homo sapiens; RXF 393, renal cancer; one dose 10 μM; read-out: Growth Inhibition Percentage (GI %)
UACC-62 = settings: Homo sapiens; UACC-62, melanoma; one dose 10 μM; read-out: Growth Inhibition Percentage (GI %)
HCC-2998 = settings: Homo sapiens; HCC-2998, colon cancer; one dose 10 μM; read-out: Growth Inhibition Percentage (GI %)
M14 = settings: Homo sapiens; M14, melanoma; one dose 10 μM; read-out: Growth Inhibition Percentage (GI %)

CCOC(=O)C1=C(N)N(c2ccc(C)cc2)C2=C(C(=O)CC(C)(C)C2)C1c1ccc(Cl)cc1 (racemic) [8d, (±)-Ethyl 2-amino-4–(4-chlorophenyl)-7,7-dimethyl-1–(4-methylphenyl)-5-oxo-1,4,5,6,7,8-hexahydroquinoline-3-carboxylate]
inhibition at 10 µM (MDA-MB-231): < 10%
inhibition at 10 µM (T-47D): 16%
inhibition at 10 µM (SNB-75): 35%
inhibition at 10 µM (A549/ATCC): 14%
inhibition at 10 µM (SN 12C): < 10%
inhibition at 10 µM (SF-295): < 10%
inhibition at 10 µM (HCT-15): 35%
inhibition at 10 µM (HOP-62): < 10%
inhibition at 10 µM (SF-539): < 10%
inhibition at 10 µM (786-0): < 10%
inhibition at 10 µM (EKVX): 15%
inhibition at 10 µM (RPMI-8226): < 10%
inhibition at 10 µM (SK-MEL-28): < 10%
inhibition at 10 µM (KM 12): < 10%
inhibition at 10 µM (SF-268): < 10%
inhibition at 10 µM (NCI-H322M): < 10%
inhibition at 10 µM (HT29): 33%
inhibition at 10 µM (CAKI-1): 30%
inhibition at 10 µM (NCI-H460): 21%
inhibition at 10 µM (SNB-19): < 10%
inhibition at 10 µM (TK-10): < 10%
inhibition at 10 µM (DU-145): < 10%
inhibition at 10 µM (NCI/ADR-RES): < 10%
inhibition at 10 µM (SK-MEL-5): 16%
inhibition at 10 µM (MDA-MB-435): < 10%
inhibition at 10 µM (NCI-H522): 15%
inhibition at 10 µM (HL-60(TB)): 21%
inhibition at 10 µM (RXF 393): < 10%
inhibition at 10 µM (UACC-62): 24%
inhibition at 10 µM (HCC-2998): < 10%
inhibition at 10 µM (M14): < 10%

CCOC(=O)C1=C(N)N(c2ccccc2)C2=C(C(=O)CC(C)(C)C2)C1c1ccccc1OC (racemic) [6g, (±)-Ethyl 2-amino-4–(2-methoxyphenyl)-7,7-dimethyl-5-oxo-1-phenyl-1,4,5,6,7,8-hexahydroquinoline-3-carboxylate]
inhibition at 10 µM (MDA-MB-231): < 10%
inhibition at 10 µM (T-47D): < 10%
inhibition at 10 µM (SNB-75): < 10%
inhibition at 10 µM (A549/ATCC): < 10%
inhibition at 10 µM (SN 12C): < 10%
inhibition at 10 µM (SF-295): 11%
inhibition at 10 µM (HCT-15): < 10%
inhibition at 10 µM (HOP-62): < 10%
inhibition at 10 µM (SF-539): < 10%
inhibition at 10 µM (786-0): < 10%
inhibition at 10 µM (EKVX): < 10%
inhibition at 10 µM (RPMI-8226): < 10%
inhibition at 10 µM (SK-MEL-28): < 10%
inhibition at 10 µM (KM 12): < 10%
inhibition at 10 µM (SF-268): < 10%
inhibition at 10 µM (NCI-H322M): < 10%
inhibition at 10 µM (HT29): < 10%
inhibition at 10 µM (CAKI-1): < 10%
inhibition at 10 µM (NCI-H460): < 10%
inhibition at 10 µM (SNB-19): < 10%
inhibition at 10 µM (TK-10): < 10%
inhibition at 10 µM (DU-145): < 10%
inhibition at 10 µM (NCI/ADR-RES): < 10%
inhibition at 10 µM (SK-MEL-5): < 10%
inhibition at 10 µM (MDA-MB-435): < 10%
inhibition at 10 µM (NCI-H522): < 10%
inhibition at 10 µM (HL-60(TB)): < 10%
inhibition at 10 µM (RXF 393): < 10%
inhibition at 10 µM (UACC-62): < 10%
inhibition at 10 µM (HCC-2998): < 10%
inhibition at 10 µM (M14): < 10%

CCOC(=O)C1=C(N)N(c2ccc(C)cc2)C2=C(C(=O)CC(C)(C)C2)C1c1ccccc1Cl (racemic) [6b, (±)-Ethyl 2-amino-4–(2-chlorophenyl)-7,7-dimethyl-1–(4-methylphenyl)-5-oxo-1,4,5,6,7,8-hexahydroquinoline-3-carboxylate]
inhibition at 10 µM (MDA-MB-231): < 10%
inhibition at 10 µM (T-47D): 21%
inhibition at 10 µM (SNB-75): 29%
inhibition at 10 µM (A549/ATCC): 13%
inhibition at 10 µM (SN 12C): < 10%
inhibition at 10 µM (SF-295): < 10%
inhibition at 10 µM (HCT-15): 30%
inhibition at 10 µM (HOP-62): < 10%
inhibition at 10 µM (SF-539): < 10%
inhibition at 10 µM (786-0): < 10%
inhibition at 10 µM (EKVX): 15%
inhibition at 10 µM (RPMI-8226): 22%
inhibition at 10 µM (SK-MEL-28): < 10%
inhibition at 10 µM (KM 12): < 10%
inhibition at 10 µM (SF-268): < 10%
inhibition at 10 µM (NCI-H322M): < 10%
inhibition at 10 µM (HT29): 30%
inhibition at 10 µM (CAKI-1): 31%
inhibition at 10 µM (NCI-H460): 20%
inhibition at 10 µM (SNB-19): 12%
inhibition at 10 µM (TK-10): < 10%
inhibition at 10 µM (DU-145): < 10%
inhibition at 10 µM (NCI/ADR-RES): < 10%
inhibition at 10 µM (SK-MEL-5): 17%
inhibition at 10 µM (MDA-MB-435): < 10%
inhibition at 10 µM (NCI-H522): 17%
inhibition at 10 µM (HL-60(TB)): < 10%
inhibition at 10 µM (RXF 393): < 10%
inhibition at 10 µM (UACC-62): 23%
inhibition at 10 µM (HCC-2998): < 10%
inhibition at 10 µM (M14): < 10%

CCOC(=O)C1=C(N)N(c2ccc(C)cc2)C2=C(C(=O)CC(C)(C)C2)C1c1ccccc1OC (racemic) [6h, (±)-Ethyl 2-amino-4–(2-methoxyphenyl)-7,7-dimethyl-1–(4-methylphenyl)-5-oxo-1,4,5,6,7,8-hexahydroquinoline-3-carboxylate]
inhibition at 10 µM (MDA-MB-231): < 10%
inhibition at 10 µM (T-47D): < 10%
inhibition at 10 µM (SNB-75): < 10%
inhibition at 10 µM (A549/ATCC): < 10%
inhibition at 10 µM (SN 12C): < 10%
inhibition at 10 µM (SF-295): < 10%
inhibition at 10 µM (HCT-15): < 10%
inhibition at 10 µM (HOP-62): < 10%
inhibition at 10 µM (SF-539): < 10%
inhibition at 10 µM (786-0): < 10%
inhibition at 10 µM (EKVX): < 10%
inhibition at 10 µM (RPMI-8226): < 10%
inhibition at 10 µM (SK-MEL-28): < 10%
inhibition at 10 µM (KM 12): < 10%
inhibition at 10 µM (SF-268): < 10%
inhibition at 10 µM (NCI-H322M): < 10%
inhibition at 10 µM (HT29): < 10%
inhibition at 10 µM (CAKI-1): < 10%
inhibition at 10 µM (NCI-H460): < 10%
inhibition at 10 µM (SNB-19): < 10%
inhibition at 10 µM (TK-10): < 10%
inhibition at 10 µM (DU-145): < 10%
inhibition at 10 µM (NCI/ADR-RES): < 10%
inhibition at 10 µM (SK-MEL-5): < 10%
inhibition at 10 µM (MDA-MB-435): < 10%
inhibition at 10 µM (NCI-H522): < 10%
inhibition at 10 µM (HL-60(TB)): < 10%
inhibition at 10 µM (RXF 393): < 10%
inhibition at 10 µM (UACC-62): < 10%
inhibition at 10 µM (HCC-2998): < 10%
inhibition at 10 µM (M14): < 10%

CCOC(=O)C1=C(N)N(c2ccccc2)C2=C(C(=O)CC(C)(C)C2)C1c1ccc(F)cc1 (racemic) [8a, (±)-Ethyl 2-amino-4–(4-fluorophenyl)-7,7-dimethyl-5-oxo-1-phenyl-1,4,5,6,7,8-hexahydroquinoline-3-carboxylate]
inhibition at 10 µM (MDA-MB-231): < 10%
inhibition at 10 µM (T-47D): < 10%
inhibition at 10 µM (SNB-75): < 10%
inhibition at 10 µM (A549/ATCC): < 10%
inhibition at 10 µM (SN 12C): < 10%
inhibition at 10 µM (SF-295): < 10%
inhibition at 10 µM (HCT-15): < 10%
inhibition at 10 µM (HOP-62): < 10%
inhibition at 10 µM (SF-539): < 10%
inhibition at 10 µM (786-0): < 10%
inhibition at 10 µM (EKVX): < 10%
inhibition at 10 µM (RPMI-8226): < 10%
inhibition at 10 µM (SK-MEL-28): < 10%
inhibition at 10 µM (KM 12): < 10%
inhibition at 10 µM (SF-268): < 10%
inhibition at 10 µM (NCI-H322M): < 10%
inhibition at 10 µM (HT29): < 10%
inhibition at 10 µM (CAKI-1): < 10%
inhibition at 10 µM (NCI-H460): < 10%
inhibition at 10 µM (SNB-19): < 10%
inhibition at 10 µM (TK-10): < 10%
inhibition at 10 µM (DU-145): < 10%
inhibition at 10 µM (NCI/ADR-RES): < 10%
inhibition at 10 µM (SK-MEL-5): < 10%
inhibition at 10 µM (MDA-MB-435): < 10%
inhibition at 10 µM (NCI-H522): < 10%
inhibition at 10 µM (HL-60(TB)): < 10%
inhibition at 10 µM (RXF 393): < 10%
inhibition at 10 µM (UACC-62): < 10%
inhibition at 10 µM (HCC-2998): < 10%
inhibition at 10 µM (M14): < 10%
